In experiment [1] the test system is Murine Sca+Lin− hematopoietic progenitor cells. Put plainly: Generation of murine dendritic cells from bone marrow Sca+Lin− progenitors, cell surface phenotype. Type of experiment: cell-based, mouse (C57BL/6). The source says:
Mouse bone marrow from inbred C57BL/6 mice was obtained from Clonetics. Hematopoietic Sca+Lin− progenitors were enriched using SpinSep murine progenitor enrichment cocktail (StemCell Technologies) and cultured in Iscove's MDM with BIT 95000 (StemCell Technologies) in the presence of murine growth factors SCF, Flt3L, GM-CSF and M-CSF for 9 days, to promote expansion of Sca+ cells and a DC precursor phenotype and then in the presence of GM-CSF and TNF-α for 3 additional days to drive the cells to an immature DC phenotype. Enriched Sca+Lin− cells were cultured in the presence of DMSO (0.1%), ACTIMID™ at 10 μM or all-trans retinoic acid (ATRA) (ICN Biomedicals) at 10 μM from day 0. Compounds were added to cells at day 0 and day 9.
Analysis of Murine cell surface phenotype: Murine cells were processed for double staining (14 min at RT) at day 9 and day 12; using FITC and PE conjugated mAbs. Antibodies used were from BD Pharmingen: Sea (PE), CD11b (FITC), Gr-1 (FITC), CD86 (PE), CD14 (PE), CD80 (PE), I-A^b (PE), CD40 (PE) and CD32.1/16.1 (FITC) from Miltenyi. Fluorescence analysis was performed on a FACScan flow cytometer (Coulter) after acquisition of 10,000 events.

The subject of experiment [2] is Bone marrow and cord blood CD34+ progenitor cells. Put plainly: Differentiation of CD34+ progenitor cells into dendritic cells, cell surface phenotype by flow cytometry. On the set-up: key to Cell Population CD15+ / Cell Population CD34+ CD38− / Cell Population CD34− CD38+ / Cell Population CD1a+ CD14− / Cell Population CD1a− CD14+: ↑: up arrow indicates an increase in the cell population; ↓: down arrow indicates a decrease. Type of experiment: cell-based, human. The conditions noted are these: day 6; SCF, Flt-3L, GM-CSF and TNF-α; versus DMSO-treated control. The method, then: Bone marrow and cord blood CD34^+ progenitor cells were obtained from Clonetics and cultured in Iscove's MDM with BIT 95000 (StemCell Technologies) in the presence of SCF, Flt-3L, GM-CSF and TNF-α for 6 days, and then in the presence of GM-CSF and TNF-α for 6 additional days.
Analysis of cell surface phenotype: Cells were processed for double staining (30 min at 4° C.) at day 6 and day 12 using FITC and PE conjugated mAbs. Antibodies used were from BD Pharmingen: CD34 (PE), CD38 (FITC), CD33 (FITC), CD1a (FITC), CD86 (PE), CD14 (PE), CD83 (PE), CD54 (PE), CD11b (PE), CD11c (PE), HLA-DR (PE), CD15 (FITC), and CD133 (PE) from Miltenyi. Fluorescence analysis was performed on a FACScan flow cytometer after acquisition of 10,000 events (Coulter). Results presented are representative of four independent experiments.
The methodology described above, i.e., the examination of the effect of IMiDs such as ACTIMID™ on the differentiation on early progenitor cells, such as CD34^+ cells, can be applied to any compound of interest, the effect of which on differentiation is desired to be known. As an example of the extension of this assay method to other compounds, we compared the effect of retinoic acid (ATRA) and aspirin to that of ACTIMID™ on the differentiation of CD34^+ cells toward the DC lineage versus the control (DMSO-treated) cells. Retinoic acid was studied because of its known effect on cellular proliferation and differentiation, its therapeutic use in some cancer, and its known teratogenic effect. Conversely, we studied the effect of aspirin because it is a commonly-used anti-inflammatory drug with no immunomodulatory properties. The results at day 6 of CD34^+ progenitors cells cultured in the presence of SCF, Flt-3L, GM-CSF and TNF-α, with or without compound for a period of 6 days, are presented below in Table 2 (up arrow indicates an increase in the cell population; down arrow indicates a decrease).
Background: A flow cytometer gives signals particle by particle.

For experiment [3], the system named is Purified human cord blood CD34+ cells. Nature of the experiment: Monocyte production: CD34/CD14 staining of cord blood CD34+ cells cultured 14 days with cytokines. The experiment is classed as cell-based. The conditions noted are these: 14 days. The method, then: Purified human cord blood CD34+ cells (greater than 90% CD34+) were cultured in 20% FCS IMDM medium supplemented with cytokines (IL3, IL6, G-CSF, KL and Epo) at 4×10^4 cells/ml for 14 days at 37° C. in a humidified 5% CO2 incubator. The experimental groups consisted of a group in which (i) no DMSO or chemical compounds were added (“None”), (ii) DMSO only, (iii) Thalidomide dissolved in DMSO, (iv) ACTIMID™ dissolved in DMSO, and (v) REVIMID™ dissolved in DMSO. Aliquots of cells were harvested and stained with CD34-PE conjugated monoclonal antibody and CD14-FITC conjugated monoclonal antibody.

The subject of experiment [4] is Human Cord Blood CD34+ Cells. Nature of the experiment: FACS analysis of proliferation and differentiation of cord blood CD34+ cells cultured with IL3, G-CSF and Kit-ligand. The conditions noted are these: for CD11b+ Cell Population / CD34+CD38+ Cell Population / CD34+CD38− Cell Population: 7 days. Type of experiment: cell-based. The method, then: CB CD34+ cells were initiated at 4×10^4 cells/ml in a 24-well plate in 20% FCS IMDM (fetal calf serum/Iscove's Modified Dulbecco's Medium) supplemented with cytokines (1 L3, GCSF and Kit-ligand) (R&D Systems, Inc.). Thalidomide (Thal), ACTIMID™ or REVIMID™ were included in the culture at three different concentrations: 5 μg/ml, 1 μg/ml and 0.3 μg/ml. The same volumes of DMSO were used as controls. A negative control without, any compound was also used (indicated by “none” in FIGS. 3-7). Cells were cultured at 37° C. and 5% CO2 in a humidified incubator for 7 days. Cells were then harvested from each well.
The total cell number from each well was determined by counting in a CELL-DYN® 1700 (Abbott Diagnostics) and the expression of CXCR4, CD45, CD34, CD38, CD 1 lb and Gly-A expression was analyzed by FACS (fluorescence-activated cell sorting) staining (FIGS. 3-7).
CB cells from two different donors (CB2276 and CB2417) were cultured, assayed and analyzed separately (Table 1).

Take `CC1=C(/C=C/C(C)=C/C=C/C(C)=C/C(=O)O)C(C)(C)CCC1` [All-trans RA, all-trans retinoic acid, reference compound]: in experiment [1] (10 μM from day 0, data not shown), the “CD80, I-A^b and Sca+ expression by day 9” value is listed as “marked downregulation”. Further, the “expression of CD40 and CD80” value in experiment [1] (10 μM, not shown) is “marked downregulation”. For the same compound, in experiment [2], the “Cell Population CD1a+ CD14−” value is given as “↓”, the “Cell Population CD1a− CD14+” value is “↓”, the “Cell Population CD15+” value is on record as “↑” and the “Cell Population CD34+ CD38−” value is recorded as “↓”. Besides, the “Cell Population CD34− CD38+” value in experiment [2] is on record as “↑”.
As for `CC(=O)Oc1ccccc1C(=O)O` [Aspirin, acetylsalicylic acid, reference compound], in experiment [2], the “Cell Population CD1a+ CD14−” value is listed as “No change”, the “Cell Population CD1a− CD14+” value was “No change”, the “Cell Population CD15+” value is on record as “No change” and the “Cell Population CD34+ CD38−” value is given as “No change”. Also, the “Cell Population CD34− CD38+” value in experiment [2] is “No change”.
For `O=C1CCC(N2C(=O)c3ccccc3C2=O)C(=O)N1` (stereo not drawn) [Thalidomide, reference compound], the “percentage of CD34+ cells of the total cells” value in experiment [3] (IL3, IL6, G-CSF, KL and Epo, compound dissolved in DMSO) is recorded as 0.24%. Besides, in experiment [3] (relative to DMSO-treated group), the “production of monocytes (CD14+ cells)” value is “similar”. The “expression of CXCR4” value in experiment [4] (FACS analysis of surface proteins) is reported as “not”. In experiment [4] (IL-3, KL and G-CSF, compared with the DMSO control), the yield of cells result is “slightly higher number of cells”. Besides, the “effect on the proliferation of CD34+ cells” value in experiment [4] (IL-3, KL and G-CSF, compared with the negative control (none)) is recorded as “do not have a significant effect”. The “CD11b+ Cell Population” value is listed as 7.6% in experiment [4] (donor CB2276, 0.3 μg/ml); 6.2% in experiment [4] (donor CB2276, 1 μg/ml); 8.1% in experiment [4] (donor CB2276, 5 μg/ml); 7.8% in experiment [4] (donor CB2417, 0.3 μg/ml); 5.2% in experiment [4] (donor CB2417, 1 μg/ml); 6.5% in experiment [4] (donor CB2417, 5 μg/ml). In addition, the “CD34+CD38+ Cell Population” value amounted to 15.1 in experiment [4] (donor CB2276, 0.3 μg/ml); 3.8 in experiment [4] (donor CB2276, 1 μg/ml); 6.5 in experiment [4] (donor CB2276, 5 μg/ml); 5.0 in experiment [4] (donor CB2417, 0.3 μg/ml); 3.8 in experiment [4] (donor CB2417, 1 μg/ml); 3.0 in experiment [4] (donor CB2417, 5 μg/ml). For the same compound, the “CD34+CD38− Cell Population” value in experiment [4] (donor CB2276, 0.3 μg/ml) was found to be 3.2; in experiment [4] (donor CB2276, 1 μg/ml), 1.0; in experiment [4] (donor CB2276, 5 μg/ml), 3.5; in experiment [4] (donor CB2417, 0.3 μg/ml) it was 0.8; in experiment [4] (donor CB2417, 1 μg/ml) it was 1.0; in experiment [4] (donor CB2417, 5 μg/ml), 1.1. Moreover, the “CD38 status of the majority of CD34+ and CD34− cells” value in experiment [4] (treated cell populations) is “mainly CD38+”.

For the origin of these results see patent publication US8889411B2, “Modulation of stem and progenitor cell differentiation, assays, and uses thereof” (Anthrogenesis Corporation, priority 2002, dated 2014).
